This assay concerns P388 mouse leukemia cells. Kind of assay: P388 mouse leukemia cell assay. Type of assay: cell-based. The settings on record: for minimal effective concentration: P388, 48 h, summary sentence on Table 1, mouse leukemia cells, read-out: good antitumor activity at concentrations of at least (against mouse leukemia cells); for IC50: P388 mouse leukemia cells, 48 hours, 37°, 10% CO2. The protocol: P388 mouse leukemia cells are grown in Dulbecco MEM medium with 10% horse serum, 4mM glutamine, and 20ug/ml gentamycin (Biologos, Inc.). Cells are incubated in 10% CO2 and subcultured 2 times per week.
1. Add compound to each well of a 24-well plate or tube and allow solvent to evaporate to dryness.
2. Add 2ml (1.2×10^5) cells to each well or tube and mix.
3. Incubate in 10% CO2 , at 37° for 48 hours.
4. Read platees with an inverted microscope, scoring activity from 1+ to 4+ as follows: ND (not detectable), >90%; 1+, 75-90%; 2+, 50-74%; 3+, 25-49%; 4+, <25% of control growth. Cell counts are performed on each tube and results are reported as percent of control. Alternatively, scoring may be expressed as IC50 which represents the minimum concentration of the composition required to inhibit 50% of the cell growth on the plate. […]

Here are results for two compounds from patent US4895852A, “Antitumor alkaloids” (Harbor Branch Oceanographic Institution, Inc., priority 1987, dated 1990).

In brackets after ≈: the same amount, converted by molar mass.

Consider `O=C1CCCN2[C@@H](CC1)C[C@]13CN4CCCC/C=C\CC[C@](O)(C=C(c5nccc6c5[nH]c5c(O)cccc56)C1CC4)[C@H]23` (stereo partly shown) [Manzamine F], for which the minimal effective concentration was not below 5 µg/mL and the IC50 is 5 µg/mL (≈ 8.61 µM).

`O=C1CCCN2C(CC1)CC13CN4CCCCC=CCCC(O)(C=C(c5nccc6c5[nH]c5ccccc56)C1CC4)C23` (stereo not shown) [Manzamine E]: the minimal effective concentration is not below 5 µg/mL and it took 5 µg/mL (≈ 8.85 µM) to reach half-maximal inhibition (IC50).

The term IC50 denotes the concentration needed to halve the response being measured. Higher therefore signals lower potency.
